Type in all cases: binding
Holding throughout (conditions): Compound Concentration 10 µM

The target of test [1] is T1, panel of 442 kinases (Homo sapiens, UniProt O95747).
T1 construct: purchased KINOMEscan
An excerpt:
(§1) We assessed the selectivity of members of this scaffold using the KINOMEscan methodology across a near comprehensive panel of 442 kinases [[18,27]].

For test [2], the target named is T2, panel of 442 kinases (Homo sapiens, UniProt P30530).
T2 construct: purchased KINOMEscan
T2 sequence (P30530 26-894): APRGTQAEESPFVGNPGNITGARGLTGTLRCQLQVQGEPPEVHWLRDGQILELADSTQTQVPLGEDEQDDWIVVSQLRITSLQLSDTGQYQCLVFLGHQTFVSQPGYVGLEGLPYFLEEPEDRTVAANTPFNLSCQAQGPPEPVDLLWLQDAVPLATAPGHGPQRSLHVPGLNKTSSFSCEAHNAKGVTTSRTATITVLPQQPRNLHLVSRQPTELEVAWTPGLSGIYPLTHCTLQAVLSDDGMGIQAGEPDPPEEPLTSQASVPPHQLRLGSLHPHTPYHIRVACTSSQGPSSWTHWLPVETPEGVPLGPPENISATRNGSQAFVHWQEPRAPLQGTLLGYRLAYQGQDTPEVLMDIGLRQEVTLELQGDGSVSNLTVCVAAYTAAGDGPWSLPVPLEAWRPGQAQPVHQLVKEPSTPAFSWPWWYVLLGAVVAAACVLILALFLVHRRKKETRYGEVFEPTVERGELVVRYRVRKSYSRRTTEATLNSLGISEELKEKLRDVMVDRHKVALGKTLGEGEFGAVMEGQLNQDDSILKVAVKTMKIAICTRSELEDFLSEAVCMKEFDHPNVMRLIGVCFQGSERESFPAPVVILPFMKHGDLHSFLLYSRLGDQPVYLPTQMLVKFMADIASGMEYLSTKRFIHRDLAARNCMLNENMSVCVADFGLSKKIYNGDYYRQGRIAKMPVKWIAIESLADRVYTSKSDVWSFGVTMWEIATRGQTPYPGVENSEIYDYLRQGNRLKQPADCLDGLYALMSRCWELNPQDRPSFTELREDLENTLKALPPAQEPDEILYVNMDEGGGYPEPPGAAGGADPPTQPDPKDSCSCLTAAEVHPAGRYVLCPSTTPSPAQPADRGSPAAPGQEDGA
Text: as §1

Test [3] deals with T3, panel of 442 kinases (Homo sapiens, UniProt Q99755).
T3 construct: purchased KINOMEscan
T3 sequence (Q99755 whole entry): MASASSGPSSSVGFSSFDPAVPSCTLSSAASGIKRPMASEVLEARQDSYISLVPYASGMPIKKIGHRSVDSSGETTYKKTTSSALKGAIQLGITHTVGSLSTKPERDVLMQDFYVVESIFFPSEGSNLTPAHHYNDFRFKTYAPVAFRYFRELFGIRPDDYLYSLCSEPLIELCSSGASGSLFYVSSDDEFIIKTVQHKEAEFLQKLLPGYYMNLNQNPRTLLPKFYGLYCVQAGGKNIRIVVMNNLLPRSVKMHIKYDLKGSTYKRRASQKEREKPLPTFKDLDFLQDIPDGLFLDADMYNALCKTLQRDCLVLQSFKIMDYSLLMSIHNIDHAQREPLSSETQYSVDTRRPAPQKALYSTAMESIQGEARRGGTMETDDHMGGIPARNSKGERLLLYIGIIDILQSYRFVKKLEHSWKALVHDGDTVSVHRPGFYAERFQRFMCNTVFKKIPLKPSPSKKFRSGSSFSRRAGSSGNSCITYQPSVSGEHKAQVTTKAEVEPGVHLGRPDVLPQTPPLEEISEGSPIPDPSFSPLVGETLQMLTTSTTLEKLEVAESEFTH
Text: as §1

T1 sequence (O95747 whole entry): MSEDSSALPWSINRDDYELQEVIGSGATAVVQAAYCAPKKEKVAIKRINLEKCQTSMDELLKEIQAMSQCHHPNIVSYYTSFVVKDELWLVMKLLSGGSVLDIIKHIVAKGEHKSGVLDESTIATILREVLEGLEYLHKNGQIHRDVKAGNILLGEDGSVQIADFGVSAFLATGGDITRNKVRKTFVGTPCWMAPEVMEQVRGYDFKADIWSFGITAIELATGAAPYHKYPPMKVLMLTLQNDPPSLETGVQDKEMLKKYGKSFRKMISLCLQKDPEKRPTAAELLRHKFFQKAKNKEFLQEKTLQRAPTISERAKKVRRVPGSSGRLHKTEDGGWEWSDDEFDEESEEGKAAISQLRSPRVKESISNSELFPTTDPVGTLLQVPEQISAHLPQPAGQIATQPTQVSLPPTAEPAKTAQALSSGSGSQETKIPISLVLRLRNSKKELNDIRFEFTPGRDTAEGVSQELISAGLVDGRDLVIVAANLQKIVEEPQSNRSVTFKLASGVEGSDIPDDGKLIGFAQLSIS

As to `CCOc1cc(C(=O)N2CCC(N3CCN(C)CC3)CC2)ccc1Nc1ncc2c(n1)N(C1CCCC1)c1ccccc1C(=O)N2C` [Compound 26], the “KINOMEscan: OSR1” value at panel of 442 kinases [1] turned out to be 99. Further, on panel of 442 kinases [2], the “KINOMEscan: AXL” value was found to be 93. Moreover, the “KINOMEscan: PIP5K1A” value on panel of 442 kinases [3] was found to be 78.

For `COc1cc(C(=O)N2CCC(N3CCN(C)CC3)CC2)ccc1Nc1ncc2c(n1)N1CCc3cccc(c31)C(=O)N2C` [Compound 24], at panel of 442 kinases [1], the “KINOMEscan: OSR1” value came to 100.

As for `COc1cc(C(=O)N2CCC(N3CCN(C)CC3)CC2)ccc1Nc1ncc2c(n1)N(C)c1ccccc1C(=O)N2C` [15 (LRRK2-IN-1)], the “KINOMEscan: OSR1” value at panel of 442 kinases [1] turned out to be 88. On panel of 442 kinases [2], the “KINOMEscan: AXL” value is reported as 100. Also, the “KINOMEscan: PIP5K1A” value on panel of 442 kinases [3] is on record as 90.

Regarding `COc1cc(C(=O)N2CCC(N3CCN(C)CC3)CC2)ccc1Nc1ncc2c(n1)N(C1CCCC1)c1ccccc1C(=O)N2C` [Compound 25, 11-cyclopentyl-2-((2-methoxy-4-(4-(4-methylpiperazin-1-yl)piperidine-1-carbonyl)phenyl)amino)-5-methyl-5H-benzo[e]pyrimido[5,4-b][1,4]diazepin-6(11H)-one], the “KINOMEscan: OSR1” value on panel of 442 kinases [1] turned out to be 100. The “KINOMEscan: AXL” value on panel of 442 kinases [2] amounted to 100. For the same compound, the “KINOMEscan: PIP5K1A” value on panel of 442 kinases [3] was 100.

These data come from article PMC3914206.
